Values of other authors as cited in PubChem BioAssay AID1259409 (Chemical Carcinogenesis Research Information System (CCRIS), 2018).

System: rodent chemically induced tumor inhibition, incidence and multiplicity
Test: CCRIS tumor inhibitor studies

O=P(O)(O)OC1C(OP(=O)(O)O)C(OP(=O)(O)O)C(OP(=O)(O)O)C(OP(=O)(O)O)C1OP(=O)(O)O (stereo not given)
tumour outcome (control, treated, inhibition, significance) (Carcinogen: 2,2'-DIHYDROXY-DI-N-PROPYLNITROSAMINE, 53609-64-6, N-ETHYL-N-HYDROXYETHYLNITROSAMINE, 13147-25-6, 3,2'-DIMETHYL-4-AMINO-, Carcinogen: 2,2'-DIHYDROXY-DI-N-PROPYLNITROSAMINE, 53609-64-6, N-ETHYL-N-HYDROXYETHYLNITROSAMINE, 13147-25-6, 3,2'-DIMETHYL-4-AMINO-, Dose [Inhibitor]: 0, 2% IN DIET FOR 32 WK BEGINNING 1 WK POST CARCINOGEN TREATMENT (STUDY DURATION: 36 WK), Route [Inhibitor]: ORAL, Species: RAT, Strain/Sex: F344/MALE, Target Tissue: Type of Lesion: LUNG: CARCINOMA, Dose [Carcinogen]: 1000 MG/KG BW DHPN TWICE, 1500 MG/KG BW EHEN TWICE, 75 MG/KG BW 3 TIMES ADMINISTERED OVER FIRST 3 WK, Promoter: NONE USED): 1/14 (7%), 3/12 (25%), -257%, not significant
tumour outcome (control, treated, inhibition, significance) (Carcinogen: 2,2'-DIHYDROXY-DI-N-PROPYLNITROSAMINE, 53609-64-6, N-ETHYL-N-HYDROXYETHYLNITROSAMINE, 13147-25-6, 3,2'-DIMETHYL-4-AMINO-, Carcinogen: 2,2'-DIHYDROXY-DI-N-PROPYLNITROSAMINE, 53609-64-6, N-ETHYL-N-HYDROXYETHYLNITROSAMINE, 13147-25-6, 3,2'-DIMETHYL-4-AMINO-, Dose [Inhibitor]: 0, 2% IN DIET FOR 32 WK BEGINNING 1 WK POST CARCINOGEN TREATMENT (STUDY DURATION: 36 WK), Route [Inhibitor]: ORAL, Species: RAT, Strain/Sex: F344/MALE, Target Tissue: Type of Lesion: THYROID GLAND: ADENOMA, Dose [Carcinogen]: 1000 MG/KG BW DHPN TWICE, 1500 MG/KG BW EHEN TWICE, 75 MG/KG BW 3 TIMES ADMINISTERED OVER FIRST 3 WK, Promoter: NONE USED): 3/14 (21%), 3/12 (25%), -19%, not significant
tumour outcome (control, treated, inhibition, significance) (Carcinogen: 2,2'-DIHYDROXY-DI-N-PROPYLNITROSAMINE, 53609-64-6, N-ETHYL-N-HYDROXYETHYLNITROSAMINE, 13147-25-6, 3,2'-DIMETHYL-4-AMINO-, Carcinogen: 2,2'-DIHYDROXY-DI-N-PROPYLNITROSAMINE, 53609-64-6, N-ETHYL-N-HYDROXYETHYLNITROSAMINE, 13147-25-6, 3,2'-DIMETHYL-4-AMINO-, Dose [Inhibitor]: 0, 2% IN DIET FOR 32 WK BEGINNING 1 WK POST CARCINOGEN TREATMENT (STUDY DURATION: 36 WK), Route [Inhibitor]: ORAL, Species: RAT, Strain/Sex: F344/MALE, Target Tissue: Type of Lesion: URINARY BLADDER: CARCINOMA, Dose [Carcinogen]: 1000 MG/KG BW DHPN TWICE, 1500 MG/KG BW EHEN TWICE, 75 MG/KG BW 3 TIMES ADMINISTERED OVER FIRST 3 WK, Promoter: NONE USED): 1/14 (7%), 2/12 (17%), -143%, not significant
outcome (Carcinogen: 2,2'-DIHYDROXY-DI-N-PROPYLNITROSAMINE, 53609-64-6, N-ETHYL-N-HYDROXYETHYLNITROSAMINE, 13147-25-6, 3,2'-DIMETHYL-4-AMINO-, Carcinogen: 2,2'-DIHYDROXY-DI-N-PROPYLNITROSAMINE, 53609-64-6, N-ETHYL-N-HYDROXYETHYLNITROSAMINE, 13147-25-6, 3,2'-DIMETHYL-4-AMINO-, Dose [Inhibitor]: 0, 2% IN DIET FOR 32 WK BEGINNING 1 WK POST CARCINOGEN TREATMENT (STUDY DURATION: 36 WK), Route [Inhibitor]: ORAL, Species: RAT, Strain/Sex: F344/MALE, Target Tissue: Type of Lesion: URINARY BLADDER: PAPILLOMA, Dose [Carcinogen]: 1000 MG/KG BW DHPN TWICE, 1500 MG/KG BW EHEN TWICE, 75 MG/KG BW 3 TIMES ADMINISTERED OVER FIRST 3 WK, Promoter: NONE USED): 0/14 (0%), 6/12 (50%), -100%, p<0.01
tumour outcome (control, treated, inhibition, significance) (Carcinogen: 2,2'-DIHYDROXY-DI-N-PROPYLNITROSAMINE, 53609-64-6, N-ETHYL-N-HYDROXYETHYLNITROSAMINE, 13147-25-6, 3,2'-DIMETHYL-4-AMINO-, Carcinogen: 2,2'-DIHYDROXY-DI-N-PROPYLNITROSAMINE, 53609-64-6, N-ETHYL-N-HYDROXYETHYLNITROSAMINE, 13147-25-6, 3,2'-DIMETHYL-4-AMINO-, Dose [Inhibitor]: 0, 2% IN DIET FOR 32 WK BEGINNING 1 WK POST CARCINOGEN TREATMENT (STUDY DURATION: 36 WK), Route [Inhibitor]: ORAL, Species: RAT, Strain/Sex: F344/RAT, Target Tissue: Type of Lesion: LARGE INTESTINE: ADENOMA, Dose [Carcinogen]: 1000 MG/KG BW DHPN TWICE, 1500 MG/KG BW EHEN TWICE, 75 MG/KG BW 3 TIMES ADMINISTERED OVER FIRST 3 WK, Promoter: NONE USED): 7/14 (50%), 5/12 (42%), 16%, not significant
tumour outcome (control, treated, inhibition, significance) (Carcinogen: 7,12-DIMETHYLBENZ(A)ANTHRACENE, 57-97-6, Dose [Inhibitor]: 0, 1 MG IN 100 µL ACETONE IMMEDIATELY AFTER CARCINOGEN DOSE 2/WK FOR 30 WK (STUDY DURATION: 30 WK), Route [Inhibitor]: DERMAL, Species: MOUSE, Strain/Sex: SWISS/FEMALE, Target Tissue: Type of Lesion: SKIN: TUMOR, Dose [Carcinogen]: 5 UG IN 100 µL ACETONE 2/WK FOR 30 WK): 8/8 (100%), 4/14 (26%), 74%, not calculated
tumour outcome (control, treated, inhibition, significance) (Carcinogen: 7,12-DIMETHYLBENZ(A)ANTHRACENE, 57-97-6, Dose [Inhibitor]: 0, 5 MG IN 100 µL ACETONE IMMEDIATELY AFTER CARCINOGEN DOSE 2/WK FOR 30 WK (STUDY DURATION: 30 WK), Route [Inhibitor]: DERMAL, Species: MOUSE, Strain/Sex: SWISS/FEMALE, Target Tissue: Type of Lesion: SKIN: TUMOR, Dose [Carcinogen]: 5 UG IN 100 µL ACETONE 2/WK FOR 30 WK): 8/8 (100%), 1/14 (6.6%), 93%, not calculated
tumour outcome (control, treated, inhibition, significance) (Carcinogen: 7,12-DIMETHYLBENZ(A)ANTHRACENE, 57-97-6, Dose [Inhibitor]: 0, 100 UG IN 100 µL ACETONE IMMEDIATELY AFTER CARCINOGEN DOSE 2/WK FOR 30 WK (STUDY DURATION: 30 WK), Route [Inhibitor]: DERMAL, Species: MOUSE, Strain/Sex: SWISS/FEMALE, Target Tissue: Type of Lesion: SKIN: TUMOR, Dose [Carcinogen]: 5 UG IN 100 µL ACETONE 2/WK FOR 30 WK): 8/8 (100%), 5/13 (40%), 60%, not calculated
tumour outcome (control, treated, inhibition, significance) (Carcinogen: 7,12-DIMETHYLBENZ[A]ANTHRACENE [57-97-6], Dose [Inhibitor]: 2% IN DIET FOR 35 WK BEGINNING 1 WK POST LAST CARCINOGEN DOSE (STUDY DURATION: 35 WK), Route [Inhibitor]: ORAL, Species: RAT, Strain/Sex: SPRAGUE-DAWLEY/FEMALE, Target Tissue: Type of Lesion: MAMMARY GLAND: CARCINOMA, Dose [Carcinogen]: 50 MG/KG BW ONCE (STUDY DURATION: 36 WK), Promoter: NONE): 14/15 (93%), 14/15 (93%), 0%, not significant
tumour outcome (control, treated, inhibition, significance) (Carcinogen: 7,12-DIMETHYLBENZ[A]ANTHRACENE [57-97-6], Dose [Inhibitor]: 2% IN DIET FOR 35 WK BEGINNING 1 WK POST LAST CARCINOGEN DOSE (STUDY DURATION: 35 WK), Route [Inhibitor]: ORAL, Species: RAT, Strain/Sex: SPRAGUE-DAWLEY/FEMALE, Target Tissue: Type of Lesion: MAMMARY GLAND: FIBROADENOMA, Dose [Carcinogen]: 50 MG/KG BW ONCE (STUDY DURATION: 36 WK), Promoter: NONE): 3/15 (20%), 4/15 (27%), -35%, not significant
